Laboratory results from PubChem BioAssay (NCI).
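A five-concentration, 48-hour dose response in 96-well plates underlies each endpoint, interpolated linearly between surrounding concentrations. Here, GI50 denotes the concentration required for 50% inhibition of growth. TGI denotes the concentration required for complete inhibition of growth.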

Legend:
Experiment in all cases: inhibition of tumour cell growth, NCI panel, 48 h
[1] = system: SN12C renal
[2] = system: RPMI-8226 leukemia
[3] = system: OVCAR-8 ovarian
[4] = system: SNB-19 CNS
[5] = system: CCRF-CEM leukemia
[6] = system: EKVX NSCLC
[7] = system: BT-549 breast
[8] = system: MALME-3M melanoma
[9] = system: CAKI-1 renal
[10] = system: HT29 colon
[11] = system: HL-60(TB) leukemia
[12] = system: HOP-92 NSCLC
[13] = system: UACC-257 melanoma
[14] = system: MOLT-4 leukemia
[15] = system: SK-MEL-28 melanoma
[16] = system: A549 NSCLC
[17] = system: 786-0 renal
[18] = system: DU-145 prostate
[19] = system: MDA-MB-231 breast
[20] = system: U251 CNS
[21] = system: LOX IMVI melanoma
[22] = system: SNB-75 CNS
[23] = system: IGROV1 ovarian
[24] = system: OVCAR-4 ovarian
[25] = system: NCI-H460 lung
[26] = system: NCI-H522 lung
[27] = system: NCI-H23 lung
[28] = system: T-47D breast
[29] = system: SK-OV-3 ovarian
[30] = system: HOP-62 NSCLC
[31] = system: TK-10 renal
[32] = system: SW-620 colon
[33] = system: K-562 leukemia
[34] = system: PC-3 prostate
[35] = system: KM12 colon
[36] = system: SR leukemia
[37] = system: M14 melanoma
[38] = system: MDA-MB-435
[39] = system: ACHN renal
[40] = system: SK-MEL-2 melanoma
[41] = system: OVCAR-3 ovarian
[42] = system: SK-MEL-5 melanoma
[43] = system: HS 578T breast
[44] = system: HCT-15 colon
[45] = system: MCF7 breast
[46] = system: SF-295 CNS
[47] = system: A498 renal
[48] = system: HCT-116 colon
[49] = system: UO-31 renal
[50] = system: SF-539 CNS
[51] = system: SF-268 CNS
[52] = system: UACC-62 melanoma
[53] = system: HCC-2998 colon
[54] = system: MDA-MB-468 breast
[55] = system: NCI-H226 lung
[56] = system: COLO 205 colon
[57] = system: OVCAR-5 ovarian
[58] = system: NCI/ADR-RES ovarian

Compound: COc1ccc(C(=O)/C=C/c2ccc(OCc3ccc(F)cc3)c(OC)c2)cc1OC
- GI50 [1]: 2.95 µM
- TGI [1]: > 100 µM
- GI50 [2]: 2.7 µM
- TGI [2]: > 100 µM
- GI50 [3]: 3.46 µM
- TGI [3]: > 100 µM
- GI50 [4]: 4.11 µM
- TGI [4]: > 100 µM
- GI50 [5]: 3.49 µM
- TGI [5]: > 100 µM
- GI50 [6]: 5.19 µM
- TGI [6]: > 100 µM
- GI50 [7]: 3.62 µM
- TGI [7]: 60 µM
- GI50 [8]: 27.5 µM
- TGI [8]: > 100 µM
- GI50 [9]: 6.01 µM
- TGI [9]: > 100 µM
- GI50 [10]: 3.02 µM
- TGI [10]: > 100 µM
- GI50 [11]: 10.4 µM
- TGI [11]: > 100 µM
- GI50 [12]: 7.53 µM
- TGI [12]: > 100 µM
- GI50 [13]: 23.2 µM
- TGI [13]: > 100 µM
- GI50 [14]: 4.07 µM
- TGI [14]: > 100 µM
- GI50 [15]: 29.3 µM
- TGI [15]: > 100 µM
- GI50 [16]: 4.81 µM
- TGI [16]: > 100 µM
- GI50 [17]: 30 µM
- TGI [17]: > 100 µM
- GI50 [18]: 5.64 µM
- TGI [18]: > 100 µM
- GI50 [19]: 3.95 µM
- TGI [19]: > 100 µM
- GI50 [20]: 3.79 µM
- TGI [20]: > 100 µM
- GI50 [21]: 3.06 µM
- TGI [21]: > 100 µM
- GI50 [22]: 17.3 µM
- TGI [22]: 99.2 µM
- GI50 [23]: 3.88 µM
- TGI [23]: > 100 µM
- GI50 [24]: 3.94 µM
- TGI [24]: > 100 µM
- GI50 [25]: 5.88 µM
- TGI [25]: > 100 µM
- GI50 [26]: 3.39 µM
- TGI [26]: 71.6 µM
- GI50 [27]: 4.44 µM
- TGI [27]: 79.3 µM
- GI50 [28]: 5.34 µM
- TGI [28]: > 100 µM
- GI50 [29]: 34.8 µM
- TGI [29]: > 100 µM
- GI50 [30]: 3.55 µM
- TGI [30]: > 100 µM
- GI50 [31]: 14.3 µM
- TGI [31]: > 100 µM
- GI50 [32]: 3.8 µM
- TGI [32]: > 100 µM
- GI50 [33]: 3.72 µM
- TGI [33]: > 100 µM
- GI50 [34]: 6.1 µM
- TGI [34]: > 100 µM
- GI50 [35]: 4.31 µM
- TGI [35]: > 100 µM
- GI50 [36]: 3.18 µM
- TGI [36]: > 100 µM
- GI50 [37]: 22.6 µM
- TGI [37]: > 100 µM
- GI50 [38]: 5.06 µM
- TGI [38]: 60.9 µM
- GI50 [39]: 6.46 µM
- TGI [39]: > 100 µM
- GI50 [40]: 13.4 µM
- TGI [40]: 47.6 µM
- GI50 [41]: 4.64 µM
- TGI [41]: > 100 µM
- GI50 [42]: 10.4 µM
- TGI [42]: 29 µM
- GI50 [43]: 23 µM
- TGI [43]: > 100 µM
- GI50 [44]: 3.09 µM
- TGI [44]: > 100 µM
- GI50 [45]: 3.04 µM
- TGI [45]: > 100 µM
- GI50 [46]: 3.99 µM
- TGI [46]: > 100 µM
- GI50 [47]: 26.1 µM
- TGI [47]: > 100 µM
- GI50 [48]: 3.57 µM
- TGI [48]: > 100 µM
- GI50 [49]: 3.7 µM
- TGI [49]: > 100 µM
- GI50 [50]: 3.36 µM
- TGI [50]: 16.7 µM
- GI50 [51]: 12 µM
- TGI [51]: > 100 µM
- GI50 [52]: 4.41 µM
- TGI [52]: > 100 µM
- GI50 [53]: 3 µM
- TGI [53]: 16.4 µM
- GI50 [54]: 2.74 µM
- TGI [54]: > 100 µM
- GI50 [55]: 4.7 µM
- TGI [55]: > 100 µM
- GI50 [56]: 7.93 µM
- TGI [56]: > 100 µM
- GI50 [57]: 3.32 µM
- TGI [57]: > 100 µM
- GI50 [58]: 2.86 µM
- TGI [58]: 16.2 µM
